This data set can be described thus: Average daily gains and feed conversion of gilts during 42-day per os exposure. The format is in vivo. As to the method:
The animals were divided into an experimental group (E, n = 18) and a control group (C, n = 21). Group E animals were orally administered ZEN at 40 μg/kg BW. Group C pigs were fed a placebo. The animals were fed complete diets in a restricted feeding regimen (Table 1). The daily dose of ZEN (40 µg/kg BW) was administered to each animal individually, which corresponds to exposure to 957–1014 µg ZEN/kg of a complete diet, depending on daily feed intake. Zearalenone was biosynthesized, purified and standardized by the Department of Chemistry of the Poznań University of Life Sciences. The experiment covered a period of 42 days. The mycotoxin was administered per os daily, in gelatine capsules before the morning feeding. The ZEN dose was adjusted to the body weight of the experimental animals. The mycotoxin was administered in capsules to prevent problems associated with uneven feed intake. Mycotoxin samples were diluted in 300 μL of 96% ethyl alcohol (96% ethyl alcohol, SWW 2442-90, Polskie Odczynniki Chemiczne SA, Gliwice, Poland) to the required dose level (based on body weight). Final solutions were stored at room temperature for 12 h to evaporate the solvent. The animals were weighed every 7 days to update mycotoxin doses for each gilt. Three animals from the experimental group and the control group each were sacrificed on Days 1, 7, 14, 21, 28, 35 and 42 (a total of 6 gilts in each week of exposure), excluding day 1, when only 3 control group animals were scarified. Every week, tissue samples were collected from the porcine gastrointestinal tract (duodenum, first and middle sections, jejunum, ileum, cecum, ascending colon, transverse colon, descending colon, middle section, and the liver, left lobe). Tissue samples were collected from the whole intestinal cross-sections.

[1] abbreviates: Group E, ZEN 40 μg/kg BW daily per os, throughout the experiment (42 days).

The structures appear in SMILES notation.

Turning to `C[C@H]1CCCC(=O)CCC/C=C/c2cc(O)cc(O)c2C(=O)O1` [ZEN, zearalenone], the “differences in average daily gains between groups” value (Group E (ZEN 40 μg/kg BW daily per os) vs Group C (placebo)) was “No significant differences”. Further, under setting [1], the average daily gains worked out at 602 g and the “feed per kg of BW gain” value is on record as 2.61 kg feed per kg of BW gain.

The values are drawn from article PMC4549746, “Zearalenone in the Intestinal Tissues of Immature Gilts Exposed per os to Mycotoxins” (Toxins, 2015).
